The source of these data is publication PMC9863901, “CX08005, a Protein Tyrosine Phosphatase 1B Inhibitor, Attenuated Hepatic Lipid Accumulation and Microcirculation Dysfunction Associated with Nonalcoholic Fatty Liver Disease” (Pharmaceuticals, 2023).

As a reminder, the IC50 is the concentration that gives 50% inhibition.

The test deals with T1, Protein tyrosine phosphatase 1B (PTP1B) (Homo sapiens, UniProt P18031).
T1 construct: gene PTPN1; recombinant human His-PTP1B protein
T1 sequence (P18031 1-435): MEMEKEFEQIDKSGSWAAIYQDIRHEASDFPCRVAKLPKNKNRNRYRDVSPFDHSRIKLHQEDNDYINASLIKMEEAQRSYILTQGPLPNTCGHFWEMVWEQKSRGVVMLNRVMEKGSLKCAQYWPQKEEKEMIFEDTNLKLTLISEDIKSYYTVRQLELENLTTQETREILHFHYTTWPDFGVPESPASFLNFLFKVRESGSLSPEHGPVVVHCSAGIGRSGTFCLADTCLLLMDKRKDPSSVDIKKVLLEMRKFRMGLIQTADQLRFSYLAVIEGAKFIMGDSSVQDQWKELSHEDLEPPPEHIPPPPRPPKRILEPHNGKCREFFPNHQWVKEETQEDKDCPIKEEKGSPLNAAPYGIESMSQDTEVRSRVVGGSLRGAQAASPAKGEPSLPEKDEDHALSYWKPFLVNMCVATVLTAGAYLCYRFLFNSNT
Kind of test: pNPP phosphatase assay with recombinant His-PTP1B, absorbance at […] nm. The test is classed as biochemical.

For `CCCCCCCCCCCCCCOc1ccccc1NC(=O)c1ccccc1C(=O)O` [CX08005], the half-inhibitory concentration (IC50) stood at 750 ± 70 nM.
